# Laboratory results taken from ChEMBL document CHEMBL1201862, “PubChem BioAssay data set” (2004).
# Activity calls are given as the source filed them.
# Key:
# Bcl-2-related protein A1 = target: T1, Bcl-2-related protein A1 (Mus musculus, UniProt Q07440); format: functional;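 also: confirmatory dose–response counterscreen on Bfl-1, used to check hits from a UBC13 polyubiquitin inhibitor campaign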
# T1 sequence (Q07440 whole entry): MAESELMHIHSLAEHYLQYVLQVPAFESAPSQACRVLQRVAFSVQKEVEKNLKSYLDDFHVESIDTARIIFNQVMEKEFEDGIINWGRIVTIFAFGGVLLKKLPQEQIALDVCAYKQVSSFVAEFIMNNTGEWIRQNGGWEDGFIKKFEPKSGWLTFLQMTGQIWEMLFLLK
# [1] = target: T2, Ubiquitin-conjugating enzyme E2 N (Homo sapiens, UniProt P61088); format: functional
# T2 sequence (P61088 whole entry): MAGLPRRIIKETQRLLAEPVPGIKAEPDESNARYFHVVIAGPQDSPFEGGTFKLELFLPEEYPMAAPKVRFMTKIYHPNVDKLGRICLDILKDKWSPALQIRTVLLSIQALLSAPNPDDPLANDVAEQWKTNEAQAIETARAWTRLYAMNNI
# [2] = target: T2, Ubiquitin-conjugating enzyme E2 N; format: functional; remark: listed apart in the source
# [3] = cytotoxicity in HPDE-C7 cells, cell-based, fluorescence, HTS (AID 430); format: functional; conditions: Homo sapiens
# [4] = microbe, parasite or virus in culture; format: functional; conditions: Mycobacterium tuberculosis
# [5] = cytotoxicity in KRAS-transformed pancreatic duct cells, primary screen, cell-based, fluorescence, HTS (AID 431); format: functional; conditions: Homo sapiens;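 also: cell line used: HPDE-C7K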
# cells [6] = format: functional, cell-based
# cells [7] = format: functional, cell-based; remark: listed apart in the source
# [8] = target: Glucose-6-phosphate 1-dehydrogenase (Homo sapiens, UniProt P11413); assay: human G6PD enzyme inhibitors, dose response, selectivity assay for P. falciparum G6PD inhibitor project, biochemical, fluorescence (AID 504792); format: functional
# Sequence of Glucose-6-phosphate 1-dehydrogenase (P11413 whole entry): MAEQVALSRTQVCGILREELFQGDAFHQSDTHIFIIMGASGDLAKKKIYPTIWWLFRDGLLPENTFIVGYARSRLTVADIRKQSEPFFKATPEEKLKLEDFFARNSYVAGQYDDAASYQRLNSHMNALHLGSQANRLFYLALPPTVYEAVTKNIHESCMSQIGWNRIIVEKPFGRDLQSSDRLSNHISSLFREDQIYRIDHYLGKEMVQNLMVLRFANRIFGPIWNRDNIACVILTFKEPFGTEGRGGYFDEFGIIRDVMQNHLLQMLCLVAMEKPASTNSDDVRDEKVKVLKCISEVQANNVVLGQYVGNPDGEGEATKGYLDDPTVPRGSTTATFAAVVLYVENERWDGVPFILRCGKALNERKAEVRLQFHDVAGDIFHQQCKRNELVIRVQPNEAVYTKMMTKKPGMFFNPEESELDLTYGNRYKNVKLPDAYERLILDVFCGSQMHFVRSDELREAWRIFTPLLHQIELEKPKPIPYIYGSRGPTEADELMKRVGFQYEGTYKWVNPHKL
# [9] = target: T3, DNA dC->dU-editing enzyme APOBEC-3G (Homo sapiens, UniProt Q9HC16); assay: Dose Response confirmation of small molecule APOBEC3G DNA Deaminase Inhibitors via a fluorescence-based single-stranded DNA deaminase assay. [Related pubchem assays (depositor defined):AID493012, AID493028]; format: functional
# T3 sequence (Q9HC16 whole entry): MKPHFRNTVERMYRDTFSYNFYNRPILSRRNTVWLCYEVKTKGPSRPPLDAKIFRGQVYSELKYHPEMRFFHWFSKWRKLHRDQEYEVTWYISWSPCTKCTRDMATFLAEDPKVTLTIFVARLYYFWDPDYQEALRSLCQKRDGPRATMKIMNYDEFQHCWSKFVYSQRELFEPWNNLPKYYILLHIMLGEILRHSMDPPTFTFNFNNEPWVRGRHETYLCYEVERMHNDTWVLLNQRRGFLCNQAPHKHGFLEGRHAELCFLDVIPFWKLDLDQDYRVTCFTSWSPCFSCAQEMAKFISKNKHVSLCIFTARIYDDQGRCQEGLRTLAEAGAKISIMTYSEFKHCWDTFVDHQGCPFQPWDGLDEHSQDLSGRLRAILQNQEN
# [10] = inhibitors of firefly luciferase expression or activity, dose response, H4 neuroglioma cells, luminescence (AID 1990); format: functional, cell-based
# [11] = target: T4, RNA-binding protein pos-1 (Caenorhabditis elegans, UniProt G5EF15); assay: inhibitors of POS-1/mex-3 RNA binding, dose response, biochemical, fluorescence polarization (AID 1964);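 also: purified POS-1 fused to maltose binding protein made in E. coli; potency of compounds blocking POS-1 binding to fluorescent RNA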
# T4 sequence (G5EF15 whole entry): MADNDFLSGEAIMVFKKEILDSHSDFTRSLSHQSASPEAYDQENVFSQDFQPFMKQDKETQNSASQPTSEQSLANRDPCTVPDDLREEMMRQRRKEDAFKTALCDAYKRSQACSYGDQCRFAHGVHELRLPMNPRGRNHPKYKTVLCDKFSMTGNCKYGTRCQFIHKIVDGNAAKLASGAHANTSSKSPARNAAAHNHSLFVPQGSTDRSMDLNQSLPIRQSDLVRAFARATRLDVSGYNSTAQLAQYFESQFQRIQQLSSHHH
# [12] = system: Streptococcus sp. 'group A'; assay: growth inhibition of control SK(-) GAS strain, dose response, counter-screen for streptokinase expression inhibitor project, luminescence, kanamycin, BacTiterGlo, confirmation (AID 1900); format: functional, organism-based
# [13] = Luminescence Cell-Based Dose Response HTS to Identify Inhibitors of 5'UTR Stem-Loop Driven Prion Protein mRNA Translation in H4 Neuroglioblastoma Cells. [Related pubchem assays: 1827 (Project Summary), 1813 (Primary HTS)]; format: functional
# [14] = inhibitors of SNCA 5'UTR-driven reporter translation, confirmation, H4 neuroglioma cells, luminescence (AID 1988); format: functional, cell-based
# Streptococcus = assay: Group A Streptococcus viability loss, dose response, counter-screen for streptokinase expression inhibitor project, luminescence, BacTiterGlo (AID 1915); format: functional, organism-based;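 also: potency for reduction of bacterial viability or growth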
# [15] = THP-1 cell cytotoxicity, dose response, cytotoxicity control for non-replicating M. tuberculosis project (AID 489025); format: functional
# [16] = Vero E6 cell cytotoxicity, dose response, cytotoxicity control for non-replicating M. tuberculosis project, secondary assay (AID 492998); format: functional, VeroE6; conditions: Vero C1008
# [17] = target: T5, Short transient receptor potential channel 4 (Mus musculus, UniProt Q9QUQ5); assay: mouse TRPC4 channel inhibitors, dose response, cell-based, HEK293 TRPC4/mu-opioid, Fluo-4 calcium (AID 434942); format: functional;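 also: potency of inhibitors blocking the TRPC4 calcium response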
# T5 sequence (Q9QUQ5 whole entry): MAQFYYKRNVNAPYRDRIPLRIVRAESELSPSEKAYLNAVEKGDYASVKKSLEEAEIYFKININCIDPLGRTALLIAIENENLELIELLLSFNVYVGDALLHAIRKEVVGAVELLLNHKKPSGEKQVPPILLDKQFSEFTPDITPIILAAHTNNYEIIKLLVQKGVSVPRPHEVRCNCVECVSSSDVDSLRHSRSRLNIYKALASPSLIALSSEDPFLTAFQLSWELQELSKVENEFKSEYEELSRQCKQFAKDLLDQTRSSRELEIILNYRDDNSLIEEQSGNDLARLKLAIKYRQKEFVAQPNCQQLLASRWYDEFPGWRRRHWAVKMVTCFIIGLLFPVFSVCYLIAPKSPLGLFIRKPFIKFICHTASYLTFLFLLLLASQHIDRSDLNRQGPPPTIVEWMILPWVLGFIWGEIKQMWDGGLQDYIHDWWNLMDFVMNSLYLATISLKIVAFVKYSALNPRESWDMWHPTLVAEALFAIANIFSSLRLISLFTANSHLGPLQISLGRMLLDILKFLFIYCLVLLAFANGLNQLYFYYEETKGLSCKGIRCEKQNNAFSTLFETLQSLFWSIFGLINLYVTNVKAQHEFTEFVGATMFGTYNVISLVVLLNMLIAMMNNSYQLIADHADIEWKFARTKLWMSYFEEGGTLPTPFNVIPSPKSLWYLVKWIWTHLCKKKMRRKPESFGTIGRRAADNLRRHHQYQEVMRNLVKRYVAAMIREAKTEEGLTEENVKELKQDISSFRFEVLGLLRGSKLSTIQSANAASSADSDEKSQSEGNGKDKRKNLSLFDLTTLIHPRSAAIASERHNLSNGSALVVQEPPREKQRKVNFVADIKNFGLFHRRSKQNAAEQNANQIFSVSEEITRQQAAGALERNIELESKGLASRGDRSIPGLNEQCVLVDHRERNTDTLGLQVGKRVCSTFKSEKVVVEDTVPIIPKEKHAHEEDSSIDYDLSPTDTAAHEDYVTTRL
# [18] = target: DNA dC->dU-editing enzyme APOBEC-3A (Homo sapiens, UniProt P31941); assay: Dose Response confirmation of small molecule APOBEC3A DNA Deaminase Inhibitors via a fluorescence-based single-stranded DNA deaminase assay. [Related pubchem assays (depositor defined):AID493011, AID493024]; format: functional
# Sequence of DNA dC->dU-editing enzyme APOBEC-3A (P31941 whole entry): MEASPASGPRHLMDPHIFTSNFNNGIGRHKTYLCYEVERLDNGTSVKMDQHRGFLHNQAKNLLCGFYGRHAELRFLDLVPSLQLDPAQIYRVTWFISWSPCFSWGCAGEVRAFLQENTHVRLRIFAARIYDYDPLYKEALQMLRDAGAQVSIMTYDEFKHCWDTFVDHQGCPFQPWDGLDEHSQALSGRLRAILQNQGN
# [19] = target: T3, DNA dC->dU-editing enzyme APOBEC-3G; format: functional
# cells [20] = format: functional
compound,measurement,setting,value
Cc1ccc(C(C(=O)NCC2CCCO2)N(C(=O)c2snc(C(N)=O)c2N)c2ccc3c(c2)OCCO3)cc1 (stereo not given),IC50,Bcl-2-related protein A1,> 20 µM (inactive)
same,IC50,[1],12.6 µM (active)
same,IC50,[2],13.1 µM (active)
CC(C)(C)c1ccc(Cn2nnc3c(O)nc(C4CCCN(C(=O)Cc5cccs5)C4)nc32)cc1 (stereo not given),EC50,[3],15.6 µM (active)
same,CC50,[4],> 40 µM (active)
same,EC50,[5],18.4 µM (active)
CCC(C)(C)c1nnc(NC(=O)C2CCN(C(=O)c3ccco3)CC2)s1,EC50,cells [6],> 350 µM (not active)
same,EC50,cells [7],> 350 µM (not active)
same,IC50,[8],> 80 µM (inactive)
same,IC50,[9],25.9 µM (active)
CC/C(=C\C=C\[C@@H]1C=C[C@@H]2CCC[C@H]2[C@@H]1C(=O)c1ccc[nH]1)[C@@H]1O[C@@H]([C@@H](C)C(=O)O)CC[C@@H]1C,EC50,[10],14.2 µM (active)
same,EC50,[11],> 300 µM (inconclusive)
same,EC50,[12],0.202 µM (active)
same,EC50,[13],14.4 µM (active)
same,EC50,[14],> 120 µM (not active)
same,EC50,Streptococcus,0.147 µM (active)
same,CC50,[15],12.4 µM (active)
same,CC50,[16],16.5 µM (active)
O=c1c2ccccc2[nH]c(=S)n1CCN1CCN(Cc2ccccc2)CC1,EC50,[17],4.73 µM (active)
O=C(COC(=O)Cn1cnc2ccccc2c1=O)Nc1ccccc1Sc1ccc(Cl)cc1,EC50,[17],1.88 µM (active)
CNC(=O)OCc1n(C)cc[n+]1C,IC50,[18],1.76 µM (active)
same,IC50,[19],1.31 µM (active)
Cc1cc(Cl)ccc1OCC(=O)NNC(=O)c1cnccn1,CC50,[15],> 40 µM (active)
same,CC50,[16],13.7 µM (active)
same,IC50,cells [20],5.5 µM (active)
